One data set deals with T1, TYK2 (Homo sapiens, UniProt P29597, E957D).
T1 construct: host or cells: Ba/F3 (murine B lymphocytes)
The experiment in a line: JAK family kinase selectivity assay, Ba/F3-FL-TYK2-E957D cell proliferation. The format is cell-based. Particulars: 72 h. The source says:
(§1) There are four kinases in the JAK family, respectively TYK2, JAK1, JAK2 and JAK3. JAK family kinase genes were introduced into the wild-type murine B lymphocytes (BaF3), and four BaF3 engineered cell lines were constructed respectively (Ba/F3-FL-TYK2-E957D, Ba/F3-TEL-JAK1, Ba/F3-TEL-JAK2, Ba/F3-TEL-JAK3). The growth and proliferation of these engineered cell lines were not dependent on IL-3, but on exogenously transferred JAK family kinases.
In this experiment, the inhibitory effects of the compounds on the proliferation of four cell types, Ba/F3-FL-TYK2-E957D, Ba/F3-TEL-JAK1, Ba/F3-TEL-JAK2, and Ba/F3-TEL-JAK3 were tested, and apoptosis was detected, and the IC50 values were calculated. The inhibitory activities of the compounds against TYK2, JAK1, JAK2, and JAK3 kinases were evaluated based on the IC50 value, thus assessing the JAK family kinase selectivity of the compounds. […]
Cells (provided by Sundia Pharmaceutical Technology (Shanghai) Co., Ltd.) were resuspended and counted using an automated cell counter. […]
(§2) The cell plate was equilibrated to room temperature. […] Detected with SpectraMax Paradigm.
(§3) • (1) IC50 was calculated using GraphPad Prism 5. • (2) % Inh=(Max signal-Compound signal)/(Max signal-Min signal)×100. • (3) Max signal was the positive control well with only the same volume of DMSO as the compound. • (4) Min signal was the negative control well with only the culture medium.

The next data set addresses T2, JAK3 (Homo sapiens, UniProt P52333, cells depend on it, form not given).
T2 construct: fused on or other part: N-terminal part of TEL (ETV6) as oligomerising partner; P41212 (Transcription factor ETV6)
Briefly: JAK family kinase selectivity assay, Ba/F3-TEL-JAK3 cell proliferation. The format is cell-based. The conditions noted are these: Ba/F3-TEL-JAK3, 72 h; read-out: Ba/F3 Cell IC50 JAK3.
Excerpt: as §1
In this experiment, the inhibitory effects of the compounds on the proliferation of four cell types, Ba/F3-FL-TYK2-E957D, Ba/F3-TEL-JAK1, Ba/F3-TEL-JAK2, and Ba/F3-TEL-JAK3 were tested, and apoptosis was detected, and the IC50 values were calculated. The inhibitory activities of the compounds against TYK2, JAK1, JAK2, and JAK3 kinases were evaluated based on the IC50 value, thus assessing the JAK family kinase selectivity of the compounds.
The tested compounds, powder and stored at room temperature, were prepared into 10 mM stock solution with DMSO and stored at −20° C. away from light for use.
Compounds were formulated into dilute solutions which was 1000 times of the final concentration. The compound was prepared into 20-times of final concentration by diluting the compound with culture medium. 2 ul of 1000-times compound was added per well to 98 ul of culture medium.
Cells (provided by Sundia Pharmaceutical Technology (Shanghai) Co., Ltd.) were resuspended and counted using an automated cell counter. The cell suspension was diluted to the desired density based on BaF3 seeding density of 2000 cells per well. Each well was plated with 95 ul of cells and incubated at 37° C. for stable equilibrium. […]
as §2, §3

The target of a further data set is T3, hERG potassium channel (Homo sapiens, UniProt Q12809).
T3 construct: expressed in transfected cells; host or cells: CHO
T3 sequence (Q12809 whole entry): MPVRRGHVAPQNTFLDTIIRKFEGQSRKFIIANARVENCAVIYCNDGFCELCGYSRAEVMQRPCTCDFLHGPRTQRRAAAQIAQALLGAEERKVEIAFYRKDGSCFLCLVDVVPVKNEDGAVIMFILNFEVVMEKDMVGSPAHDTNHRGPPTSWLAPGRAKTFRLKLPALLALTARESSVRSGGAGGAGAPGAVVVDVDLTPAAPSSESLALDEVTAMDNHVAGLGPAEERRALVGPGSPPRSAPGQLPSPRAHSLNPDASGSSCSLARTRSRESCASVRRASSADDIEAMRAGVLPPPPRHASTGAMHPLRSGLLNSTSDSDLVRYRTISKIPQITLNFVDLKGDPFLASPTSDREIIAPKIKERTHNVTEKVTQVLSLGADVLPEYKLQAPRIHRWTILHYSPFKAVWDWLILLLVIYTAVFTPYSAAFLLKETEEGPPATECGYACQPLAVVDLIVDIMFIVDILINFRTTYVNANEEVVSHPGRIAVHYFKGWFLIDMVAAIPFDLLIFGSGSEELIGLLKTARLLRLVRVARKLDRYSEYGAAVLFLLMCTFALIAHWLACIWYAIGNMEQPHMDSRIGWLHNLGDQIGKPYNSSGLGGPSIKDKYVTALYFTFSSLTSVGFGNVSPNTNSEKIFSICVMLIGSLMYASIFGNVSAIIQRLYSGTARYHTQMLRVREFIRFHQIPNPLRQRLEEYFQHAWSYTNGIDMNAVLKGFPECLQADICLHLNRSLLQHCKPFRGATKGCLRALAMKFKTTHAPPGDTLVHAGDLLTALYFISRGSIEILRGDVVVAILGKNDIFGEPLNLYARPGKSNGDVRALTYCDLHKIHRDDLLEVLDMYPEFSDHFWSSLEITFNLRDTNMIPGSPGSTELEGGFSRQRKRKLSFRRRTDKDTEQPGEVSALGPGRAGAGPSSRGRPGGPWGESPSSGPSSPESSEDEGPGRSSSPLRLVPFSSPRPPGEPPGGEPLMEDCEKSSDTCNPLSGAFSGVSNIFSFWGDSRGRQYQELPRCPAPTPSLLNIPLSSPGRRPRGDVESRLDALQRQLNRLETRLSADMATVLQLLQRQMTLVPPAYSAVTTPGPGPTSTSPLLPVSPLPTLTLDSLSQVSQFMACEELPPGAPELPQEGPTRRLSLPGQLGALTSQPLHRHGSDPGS
The experiment in a line: hERG potassium channel inhibition assay (CHO-hERG cells, Qpatch automated patch clamp). The format is cell-based. Particulars: highest tested concentration 40 μM. The method, then:
4.1 Purpose of the Experiment The blocking effect of the compounds in the present invention on hERG potassium currents on stable cell lines transfected with hERG potassium channels was tested by applying a fully automated membrane clamp.
CHO-hERG cells were cultured in 175 cm^2 culture flasks, and when the cell density grew to 60-80%, the culture medium was removed and washed with 7 ml of PBS (Phosphate Buffered Saline), and then 3 ml of Detachin was added for digestion.
When digestion was completed, 7 ml of culture medium was added to neutralize the cells, then centrifuged, the supernatant was removed, and 5 ml of culture medium was added to resuspend the cells to ensure that the cell density is 2-5×10^6/ml.
The single-cell high-impedance sealing and whole-cell pattern formation processes were all automated with the Qpatch instrument. After obtaining the recording pattern, the cells were clamped at −80 mV, and a −50 mV preconditioning voltage was given for 50 ms prior to giving a +40 mV depolarizing stimulus for 5 s. The cell was then repolarized to −50 mV to be maintained for 5 s and then returned to −80 mV. This voltage stimulus was applied every 15 s. […]
The experimental data was analyzed by XLFit software.
(The hERG channel carries a current that helps repolarise heart muscle cells.)

A short description of data set [1]: In vivo pharmacokinetic experiment in rats (oral). Further details: species or system SD rats. Particulars: 5 mg/kg. The procedure: Experimental method: Healthy male SD rats were randomly grouped into 3 rats in each group and given the test compound orally. The rats were fasted for 12 h before the gavage experiment, and drank water freely, and were fed uniformly for 4 h after the administration of the compounds. Before (0 h) and 0.25, 0.5, 1.0, 2.0, 4.0, 6.0, 8.0 and 24 h after the administration of the test compounds, 0.2 mL of blood was collected from the jugular vein at the above set time points and placed in EDTA-K2 tubes, and the whole blood was collected and stored temporarily in an ice-water bath, and then centrifuged at 11,000 rpm for 5 min within 30 min, the plasma was separated, and frozen at −70° C. in a refrigerator for testing.

A short description of data set [2]: In vivo pharmacokinetic experiments in Beagle dogs (oral). Particulars: 2 mg/kg. The method, then: Experimental Methods: Healthy male Beagle dogs were randomly grouped into 3 […] in each group, and were given the test compounds orally. Before the gavage experiment, the dogs were fasted for 12 h, drank water freely, and were uniformly fed for 4 h after the administration of the drug. 0.083, 0.25, 0.5, 1.0, 2.0, 4.0, 6.0, 8.0, 10 and 24 h after administration; about 600 μL of blood was collected from the forelimb or hindlimb at the above set time points and placed in EDTA-K2 tubes, and the whole blood was collected and stored temporarily in an ice-water bath, and then centrifuged at least 3500 rpm for 10 min within 30 min, and the plasma was separated and frozen in a −70° C. refrigerator for testing.

A short description of data set [3]: Solubility in water (at pH=7). Format: physicochemical. The source says: Test Example 6: Solubility of the Compounds of the Invention in Water (at pH=7)

Converted amounts (≈) assume the structure as drawn. Where only a bound is given, the exact number is not on record here.

What is called IC50 is the concentration that gives 50% inhibition. For orientation: Cmax means the maximum level reached in the sampled fluid or tissue. A word on the MRT: it is a mean duration of stay, worked out from the concentration-time curve. The half-life is how long it takes for the measured level to halve. Higher therefore signals slow decline. The Solubility is how much of the substance goes into solution per volume. The low end stands for a poorly soluble substance, the high end for a readily soluble substance.

T2 sequence (P52333 822-1111 limits assumed, change not shown): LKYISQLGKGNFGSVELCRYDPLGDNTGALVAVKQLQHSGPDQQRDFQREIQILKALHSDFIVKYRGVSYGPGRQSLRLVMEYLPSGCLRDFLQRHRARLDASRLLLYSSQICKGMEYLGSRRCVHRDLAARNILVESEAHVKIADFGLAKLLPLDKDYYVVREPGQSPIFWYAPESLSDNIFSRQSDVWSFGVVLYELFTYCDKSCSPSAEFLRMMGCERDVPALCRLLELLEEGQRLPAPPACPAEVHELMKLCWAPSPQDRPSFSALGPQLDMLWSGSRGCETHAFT
T1 sequence (P29597 whole entry E957D): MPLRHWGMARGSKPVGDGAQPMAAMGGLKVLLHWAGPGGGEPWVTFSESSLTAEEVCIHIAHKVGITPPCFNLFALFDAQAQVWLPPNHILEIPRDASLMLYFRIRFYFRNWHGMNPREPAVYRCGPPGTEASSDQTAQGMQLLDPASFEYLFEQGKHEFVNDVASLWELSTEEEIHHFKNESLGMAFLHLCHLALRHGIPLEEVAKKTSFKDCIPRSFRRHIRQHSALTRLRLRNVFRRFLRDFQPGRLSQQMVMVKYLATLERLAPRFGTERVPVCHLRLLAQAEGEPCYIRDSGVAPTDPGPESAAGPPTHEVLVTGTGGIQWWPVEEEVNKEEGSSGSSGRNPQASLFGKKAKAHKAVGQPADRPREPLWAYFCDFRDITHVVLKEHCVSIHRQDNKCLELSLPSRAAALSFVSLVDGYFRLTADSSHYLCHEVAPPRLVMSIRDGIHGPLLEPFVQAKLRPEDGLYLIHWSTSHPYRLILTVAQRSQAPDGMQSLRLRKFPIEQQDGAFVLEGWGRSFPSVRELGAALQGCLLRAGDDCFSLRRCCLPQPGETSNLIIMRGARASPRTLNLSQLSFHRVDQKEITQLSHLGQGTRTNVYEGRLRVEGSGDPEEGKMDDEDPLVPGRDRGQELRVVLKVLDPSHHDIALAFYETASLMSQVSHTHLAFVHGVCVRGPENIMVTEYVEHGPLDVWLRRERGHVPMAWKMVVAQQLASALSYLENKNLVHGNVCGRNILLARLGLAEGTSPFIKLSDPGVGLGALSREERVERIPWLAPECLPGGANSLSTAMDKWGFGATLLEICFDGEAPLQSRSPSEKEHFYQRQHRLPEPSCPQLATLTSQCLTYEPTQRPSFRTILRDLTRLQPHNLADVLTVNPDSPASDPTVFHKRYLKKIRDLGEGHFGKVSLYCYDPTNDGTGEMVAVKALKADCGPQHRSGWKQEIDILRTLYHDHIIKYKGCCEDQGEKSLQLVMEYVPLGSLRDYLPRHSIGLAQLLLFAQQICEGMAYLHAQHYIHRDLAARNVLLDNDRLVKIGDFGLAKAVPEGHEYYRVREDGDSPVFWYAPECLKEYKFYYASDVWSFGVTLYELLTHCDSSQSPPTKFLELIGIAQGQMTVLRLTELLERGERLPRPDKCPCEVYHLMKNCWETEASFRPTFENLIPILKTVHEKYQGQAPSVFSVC

The compound `[2H]C([2H])([2H])NC(=O)c1nnc(NC(=O)C2CC2)cc1Nc1nc(N)c(Cl)cc1[S@@](C)(=O)=NC` [Example 28] gave an IC50 against TYK2 of 0.0006 µM. Also, at JAK3, the GI50 was above 1 µM. Further, the IC50 on hERG potassium channel is above 30 µM. In addition, in data set [1], the AUC is recorded as 2644 ngh/mL and the F is 103.8%. In data set [1] (male, SD, rat, plasma), the Cmax was determined as 0.651 µg/mL, the MRT was determined as 3.54 h and the half-life is 2.48 h. Also, in data set [2], the AUC worked out at 6684 ngh/mL and the F is reported as 117%. Further, in data set [2] (male, dog, plasma), the Cmax was 0.485 µg/mL, the MRT turned out to be 10.7 h and the half-life was 7.26 h. Moreover, the Solubility in data set [3] was 0.022 mg/mL (≈ 48.3 µM).

For `[2H]C([2H])([2H])NC(=O)c1nnc(NC(=O)C2CC2)cc1Nc1nc(N)c(Cl)cc1[S@](C)(=N)=O` [Example 29, (R)-4-((6-amino-5-chloro-3-(S-methylsulfoximino)pyridin-2-yl)amino)-6-(cyclopropylcarboxamido)-N-(methyl-d3)pyridazine-3-carboxamide], the IC50 against TYK2 is 0.0011 µM; on hERG potassium channel, above 30 µM. For the same compound, the GI50 at JAK3 was above 1 µM.

Source of the values: patent publication US20250179022A1, “COMPOUND USED AS TYK2 INHIBITOR, PREPARATION METHOD THEREFOR, AND PHARMACEUTICAL USE THEREOF” (SHANGHAI ZHIGEN PHARMACEUTICAL & TECHNOLOGY CO. LTD., priority 2022, published 2025).
